Experimental data taken from BindingDB's records for doi:10.1021/jm00061a009 (National Institute of Diabetes and Digestive and Kidney …, 1993).

Assay: Inhibition of [3H](+)-pentazocine binding to sigma receptor of guinea pig brain homogenates

SMILES | Ki
c1ccc2sc(C3(N4CCCCCC4)CCCCCC3)cc2c1 [1-(1-Benzo[b]thiophen-2-yl-cycloheptyl)-azepane] | 2710 nM
c1ccc2sc(C3(N4CCCCC4)CCCCCC3)cc2c1 [1-(1-Benzo[b]thiophen-2-yl-cycloheptyl)-piperidine] | 2230 nM
c1ccc2sc(C3(N4CCCC4)CCCCCC3)cc2c1 [1-(1-Benzo[b]thiophen-2-yl-cycloheptyl)-pyrrolidine] | 720 nM
c1ccc2sc(C3(N4CCCCCC4)CCCCC3)cc2c1 [1-(1-Benzo[b]thiophen-2-yl-cyclohexyl)-azepane] | 674 nM
c1ccc2sc(C3(N4CCCC4)CCCCC3)cc2c1 [1-(1-Benzo[b]thiophen-2-yl-cyclohexyl)-pyrrolidine] | 168 nM
c1ccc2sc(C3(N4CCCCCC4)CCCC3)cc2c1 [1-(1-Benzo[b]thiophen-2-yl-cyclopentyl)-azepane] | 2890 nM
c1ccc2sc(C3(N4CCCCC4)CCCC3)cc2c1 [1-(1-Benzo[b]thiophen-2-yl-cyclopentyl)-piperidine] | 1100 nM
c1ccc2sc(C3(N4CCCC4)CCCC3)cc2c1 [1-(1-Benzo[b]thiophen-2-yl-cyclopentyl)-pyrrolidine] | 125 nM
NC1(c2cc3ccccc3s2)CCCCCC1 [1-Benzo[b]thiophen-2-yl-cycloheptylamine] | 9170 nM
NC1(c2cc3ccccc3s2)CCCCC1 [1-Benzo[b]thiophen-2-yl-cyclohexylamine] | 3170 nM
NC1(c2cc3ccccc3s2)CCCC1 [1-Benzo[b]thiophen-2-yl-cyclopentylamine] | 1730 nM
